This note sets out measurements from ChEMBL document CHEMBL5442379, “ASAP - SARS-CoV-2 nsp3 macrodomain single point” (2024).

The target in the test is Replicase polyprotein 1ab (Severe acute respiratory syndrome coronavirus 2) (UniProt P0DTD1).

Structures are written as SMILES.

A word on the inhibition: it is the relative decrease from the control value, in per cent.

Description: Functional biochemical assay to identify treatments for viral infectious disease that targets SARS-COV-2 nsp3 macrodomain, whereby the mechanism of action displaces an ADP-Ribose modified peptide from the binding site. Utilizing a time-resolved fluorescence method to measure binding by reading the emitted fluorescence intensity in two wavelengths.

For `CCc1nc(CN(C)c2nc(C)nc3[nH]ccc23)cs1`, the inhibition (Concentration 50.0 uM, Number of replicates 2.0, Standard deviation 3.767 %) was -6.13%. As for `Cc1nn(C)c(NCc2nc(CO)cs2)c1C#N`, for the setting “Concentration 50.0 uM, Number of replicates 2.0, Standard deviation 1.694 %”, the inhibition was determined as 2.1%. As for `c1ccc(Cn2ncc3c2CCC[C@@H]3Nc2ncnc3[nH]ccc23)cc1`, the inhibition (Concentration 50.0 uM, Number of replicates 2.0, Standard deviation 3.356 %) was 5.85%. In the case of `c1ccc(OC[C@@H]2CCCN2c2ncnc3[nH]ccc23)cc1`, the inhibition (Concentration 50.0 uM, Number of replicates 2.0, Standard deviation 1.709 %) was -0.466%. In the case of `FC(F)(F)CO[C@@H]1CCCN(c2ncnc3[nH]ccc23)C1`, the inhibition (Concentration 50.0 uM, Number of replicates 2.0, Standard deviation 28.677 %) was found to be 22.2%. With `COc1cccc2cc(CNc3cnc4[nH]ncc4c3)oc12`, the inhibition (Concentration 50.0 uM, Number of replicates 2.0, Standard deviation 5.215 %) is -4.29%. In the case of `c1nc(NCc2cnc3sccn23)c2[nH]cnc2n1`, the inhibition runs as follows: (Concentration 50.0 uM, Number of replicates 2.0, Standard deviation 7.011 %) -4.78%; (Concentration 100.0 uM, Number of replicates 2.0, Standard deviation 4.457 %) 5.65%. `Cc1ccc(O)c(CNc2ncnc3[nH]cnc23)n1`: the inhibition runs as follows: (Concentration 50.0 uM, Number of replicates 2.0, Standard deviation 1.123 %) 0.262%; (Concentration 100.0 uM, Number of replicates 2.0, Standard deviation 2.0 %) 6.28%. `Cn1nncc1C(=O)N(CCC(=O)N1CCNCC1)Cc1cccc(Cl)c1`: the inhibition reads like this: (Concentration 49.75 uM, Number of replicates 2.0, Standard deviation 1.263 %) 0.447%; (Concentration 99.5 uM, Number of replicates 2.0, Standard deviation 1.735 %) -2.15%. As to `CC(C)(C[C@@H]1CCCN(c2ncnc3[nH]ccc23)C1)C(N)=O`, the inhibition (Concentration 50.0 uM, Number of replicates 2.0, Standard deviation 4.235 %) was -1.59%. As to `CN(Cc1nccn1Cc1ccccc1)c1ncnc2[nH]ccc12`, the inhibition (Concentration 50.0 uM, Number of replicates 2.0, Standard deviation 2.394 %) is -7.22% and the inhibition (Concentration 100.0 uM, Number of replicates 2.0, Standard deviation 1.584 %) was -8.82%. `O=C(Nc1ccc(O)cc1)Nc1ccc(Oc2ccccc2)cc1`: under “Concentration 50.0 uM, Number of replicates 2.0, Standard deviation 2.274 %”, the inhibition is -3.31%. With `Cn1nc(NCc2cc3c(=O)[nH]ccc3o2)c2nccnc21`, where the note is “Concentration 50.0 uM, Number of replicates 2.0, Standard deviation 1.985 %”, the inhibition is -1.01%. As to `Clc1cnc(N2CCN(c3ncnc4[nH]ccc34)CC2)c(Cl)c1`, the inhibition runs as follows: (Concentration 50.0 uM, Number of replicates 2.0, Standard deviation 0.674 %) -2%; (Concentration 100.0 uM, Number of replicates 2.0, Standard deviation 2.989 %) -6.57%.

With `Cn1nc(C(=O)O)cc1C(=O)N1CCC(c2ccn3ncc(C(=O)N4CCCCC4)c3c2)CC1`, the inhibition by setting is: (Concentration 49.75 uM, Number of replicates 2.0, Standard deviation 5.569 %) 34.2%; (Concentration 99.5 uM, Number of replicates 2.0, Standard deviation 2.729 %) 52.7%. On to `O=C(CCN(Cc1cccc(Cl)c1)C(=O)c1ccc(F)cn1)N1CCNCC1`, for which the inhibition is, setting by setting: (Concentration 49.75 uM, Number of replicates 2.0, Standard deviation 0.987 %) 6.76%; (Concentration 99.5 uM, Number of replicates 2.0, Standard deviation 1.391 %) 6.74%. Turning to `NC(=O)c1ncccc1C(=O)N1CCC(c2ccn3ncc(C(=O)N4CCCCC4)c3c2)CC1`, the inhibition reads like this: (Concentration 49.75 uM, Number of replicates 2.0, Standard deviation 4.804 %) 20%; (Concentration 99.5 uM, Number of replicates 2.0, Standard deviation 1.17 %) 36%.

For the compound `COc1nc2cc(NC(=O)c3cc(N4CCNC4=O)ccc3F)ccc2[nH]1`, the inhibition (Concentration 50.0 uM, Number of replicates 2.0, Standard deviation 4.804 %) was -4.21%. Consider `Cc1n[nH]cc1CN(C)C(=O)c1ccc(NC(=O)Nc2ccccc2)cc1`, for which the inhibition is -3.77% (Concentration 49.75 uM, Number of replicates 2.0, Standard deviation 4.474 %) and -0.031% (Concentration 99.5 uM, Number of replicates 2.0, Standard deviation 2.774 %). As for `O=C(c1cccc(Br)c1)N1CCC(c2ccn3ncc(C(=O)N4CCCCC4)c3c2)CC1`, the inhibition (Concentration 50.0 uM, Number of replicates 2.0, Standard deviation 0.499 %) turned out to be 32.1%.

As for `O=C(NCc1nc(-c2ccco2)n[nH]1)c1cc(=O)n2ncnc2[nH]1`, the inhibition (Concentration 50.0 uM, Number of replicates 2.0, Standard deviation 1.646 %) is -2.6%. Turning to `O=C(Nc1cnc2[nH]ncc2c1)c1ccncc1Cl`, the inhibition is -2.75% (Concentration 50.0 uM, Number of replicates 2.0, Standard deviation 1.31 %); -0.272% (Concentration 50.0 uM, Number of replicates 2.0, Standard deviation 1.931 %); 2.96% (Concentration 100.0 uM, Number of replicates 2.0, Standard deviation 1.828 %). Regarding `Cc1[nH]c2ncnc(NCc3ccco3)c2c1C`, the inhibition runs as follows: (Concentration 50.0 uM, Number of replicates 2.0, Standard deviation 0.505 %) 17%; (Concentration 100.0 uM, Number of replicates 2.0, Standard deviation 0.323 %) 37.5%.

In the case of `O=C(Nc1ccccc1)Nc1ccc(C(=O)Nc2nnc(C(F)(F)F)[nH]2)cc1`, the inhibition (Concentration 49.75 uM, Number of replicates 2.0, Standard deviation 1.534 %) was -3.2% and the inhibition (Concentration 99.5 uM, Number of replicates 2.0, Standard deviation 0.592 %) was -1.46%. Regarding `C[C@@H](Nc1ncnc2[nH]ccc12)c1cnn(CC2CCC2)c1`, the inhibition was -0.451% (Concentration 49.75 uM, Number of replicates 2.0, Standard deviation 1.153 %) and 4.9% (Concentration 99.5 uM, Number of replicates 2.0, Standard deviation 1.366 %). As to `Nc1ncnc2c1ncn2Cc1cccc2ncnn12`, the inhibition is, setting by setting: (Concentration 49.75 uM, Number of replicates 2.0, Standard deviation 0.496 %) -0.553%; (Concentration 99.5 uM, Number of replicates 2.0, Standard deviation 1.809 %) -3.16%. Consider `O=C1CC[C@@H](CNC(=O)c2cnn3ccc(C4CCN(C(=O)c5ccccc5)CC4)cc23)N1`, for which the inhibition is -2.32% (Concentration 49.75 uM, Number of replicates 2.0, Standard deviation 1.276 %) and -1.47% (Concentration 99.5 uM, Number of replicates 2.0, Standard deviation 4.674 %).

In the case of `O[C@@]1(C(F)(F)F)CCCN(c2ncnc3n[nH]cc23)CC1`, for the setting “Concentration 50.0 uM, Number of replicates 2.0, Standard deviation 1.087 %”, the inhibition is -4.14%. Take `CC(C)OCCNC(=O)c1cc2c(=O)n3ccccc3nc2n1C`: the inhibition (Concentration 50.0 uM, Number of replicates 2.0, Standard deviation 4.259 %) turned out to be 14%. For `CC(C)(CCNc1ncnc2[nH]ccc12)S(C)(=O)=O`, where the note is “Concentration 50.0 uM, Number of replicates 2.0, Standard deviation 3.874 %”, the inhibition amounted to 0.75%.

`C[C@@H](O)[C@@H]1CN(C(=O)c2ncnc3[nH]ccc23)CCO1`: the inhibition (Concentration 50.0 uM, Number of replicates 2.0, Standard deviation 0.15 %) was -3.13%. Consider `Cn1cc(NC(=O)c2ccc(NC(=O)Nc3ccccc3)cc2)c(C#N)n1`, for which the inhibition by setting is: (Concentration 49.75 uM, Number of replicates 2.0, Standard deviation 0.991 %) 2.49%; (Concentration 99.5 uM, Number of replicates 2.0, Standard deviation 1.521 %) -0.539%. On to `O=C(Nc1ccccc1)Nc1ccc(C(=O)N[C@H]2CC[C@H](CO)CC2)cc1`, for which the inhibition is, setting by setting: (Concentration 49.75 uM, Number of replicates 2.0, Standard deviation 1.388 %) -0.639%; (Concentration 99.5 uM, Number of replicates 2.0, Standard deviation 3.79 %) -2.58%. In the case of `Cc1nccc(C(=O)N2CCC(c3ccn4ncc(C(=O)N5CCCCC5)c4c3)CC2)n1`, the inhibition (Concentration 49.75 uM, Number of replicates 2.0, Standard deviation 2.531 %) is 16.5% and the inhibition (Concentration 99.5 uM, Number of replicates 2.0, Standard deviation 1.199 %) turned out to be 27.4%.

On to `CC(C)[C@@H](CO)[C@@H](Nc1ncnc2[nH]ccc12)C(C)C`, for which the inhibition is, setting by setting: (Concentration 49.75 uM, Number of replicates 2.0, Standard deviation 2.34 %) 6.65%; (Concentration 99.5 uM, Number of replicates 2.0, Standard deviation 2.712 %) 13.1%. In the case of `O=C(CCN(Cc1cccc(Cl)c1)C(=O)[C@@H]1CNCC12CC2)N1CCNCC1`, the inhibition is, setting by setting: (Concentration 49.75 uM, Number of replicates 2.0, Standard deviation 4.003 %) 4.21%; (Concentration 99.5 uM, Number of replicates 2.0, Standard deviation 2.443 %) 2.38%. Consider `Cc1c(-c2cnc3nc[nH]c(=O)c3c2)ccc2[nH]ncc12`, for which the inhibition was -3.12% (Concentration 49.75 uM, Number of replicates 2.0, Standard deviation 0.542 %) and -4.36% (Concentration 99.5 uM, Number of replicates 2.0, Standard deviation 2.71 %).

In the case of `Cc1nn(-c2ccccc2)c(C)c1[C@H]1COCCN1c1ncnc2[nH]ccc12`, the inhibition reads like this: (Concentration 49.75 uM, Number of replicates 2.0, Standard deviation 1.442 %) -0.042%; (Concentration 99.5 uM, Number of replicates 2.0, Standard deviation 1.631 %) -4.22%. As to `Cc1cnc(CCNc2ncnc3[nH]ncc23)c(C)c1`, the inhibition (Concentration 50.0 uM, Number of replicates 2.0, Standard deviation 4.479 %) was found to be 4.34%. For `CCC[C@@](C)(NC(=O)c1ncnc2[nH]ccc12)C(=O)OC`, the inhibition (Concentration 50.0 uM, Number of replicates 2.0, Standard deviation 3.705 %) is -6.62%. For `C[C@]1(C(=O)N(CCC(=O)N2CCNCC2)Cc2cccc(Cl)c2)CCCN1`, the inhibition came to 1.4% (Concentration 49.75 uM, Number of replicates 2.0, Standard deviation 5.247 %) and 2.13% (Concentration 99.5 uM, Number of replicates 2.0, Standard deviation 0.402 %). On to `Cn1nc(NC(=O)c2cc(-c3ccco3)[nH]n2)c2nccnc21`, for which the inhibition (Concentration 50.0 uM, Number of replicates 2.0, Standard deviation 0.879 %) is -5.4%. Consider `O=S(=O)(Nc1ncccn1)c1ccc2oc3ccccc3c2c1`, for which the inhibition (Concentration 50.0 uM, Number of replicates 2.0, Standard deviation 5.51 %) was -3%. For the compound `CC1OCCC1(O)CNC(=O)c1ncnc2[nH]ccc12` (stereo not drawn), the inhibition (Concentration 50.0 uM, Number of replicates 2.0, Standard deviation 4.016 %) amounted to 1.86%. As for `O=C(NC1CCC(F)(F)CC1)c1ncnc2[nH]ccc12`, the inhibition is, setting by setting: (Concentration 49.75 uM, Number of replicates 2.0, Standard deviation 1.299 %) -3.47%; (Concentration 99.5 uM, Number of replicates 2.0, Standard deviation 1.382 %) -5.78%. Consider `COCc1nc(CNc2ncc3c(n2)COC3)cs1`, for which the inhibition (Concentration 50.0 uM, Number of replicates 2.0, Standard deviation 8.324 %) was -7.14%. As for `CC(C)[C@H]1N(c2ncnc3[nH]ccc23)CC12CCOCC2`, the inhibition reads like this: (Concentration 49.75 uM, Number of replicates 2.0, Standard deviation 0.024 %) 27.6%; (Concentration 99.5 uM, Number of replicates 2.0, Standard deviation 0.45 %) 48%.
